The record followed here is patent US6710088B2 (NPS Pharmaceuticals, Inc., priority 1996, dated 2004).

Structures can show the parent of a compound that is named as a salt.

The assay deals with T1, calcium receptor (Homo sapiens, UniProt P41180).
T1 construct: expressed in transfected cells; host or cells: HEK 293 4.0-7
T1 sequence (P41180 20-1078): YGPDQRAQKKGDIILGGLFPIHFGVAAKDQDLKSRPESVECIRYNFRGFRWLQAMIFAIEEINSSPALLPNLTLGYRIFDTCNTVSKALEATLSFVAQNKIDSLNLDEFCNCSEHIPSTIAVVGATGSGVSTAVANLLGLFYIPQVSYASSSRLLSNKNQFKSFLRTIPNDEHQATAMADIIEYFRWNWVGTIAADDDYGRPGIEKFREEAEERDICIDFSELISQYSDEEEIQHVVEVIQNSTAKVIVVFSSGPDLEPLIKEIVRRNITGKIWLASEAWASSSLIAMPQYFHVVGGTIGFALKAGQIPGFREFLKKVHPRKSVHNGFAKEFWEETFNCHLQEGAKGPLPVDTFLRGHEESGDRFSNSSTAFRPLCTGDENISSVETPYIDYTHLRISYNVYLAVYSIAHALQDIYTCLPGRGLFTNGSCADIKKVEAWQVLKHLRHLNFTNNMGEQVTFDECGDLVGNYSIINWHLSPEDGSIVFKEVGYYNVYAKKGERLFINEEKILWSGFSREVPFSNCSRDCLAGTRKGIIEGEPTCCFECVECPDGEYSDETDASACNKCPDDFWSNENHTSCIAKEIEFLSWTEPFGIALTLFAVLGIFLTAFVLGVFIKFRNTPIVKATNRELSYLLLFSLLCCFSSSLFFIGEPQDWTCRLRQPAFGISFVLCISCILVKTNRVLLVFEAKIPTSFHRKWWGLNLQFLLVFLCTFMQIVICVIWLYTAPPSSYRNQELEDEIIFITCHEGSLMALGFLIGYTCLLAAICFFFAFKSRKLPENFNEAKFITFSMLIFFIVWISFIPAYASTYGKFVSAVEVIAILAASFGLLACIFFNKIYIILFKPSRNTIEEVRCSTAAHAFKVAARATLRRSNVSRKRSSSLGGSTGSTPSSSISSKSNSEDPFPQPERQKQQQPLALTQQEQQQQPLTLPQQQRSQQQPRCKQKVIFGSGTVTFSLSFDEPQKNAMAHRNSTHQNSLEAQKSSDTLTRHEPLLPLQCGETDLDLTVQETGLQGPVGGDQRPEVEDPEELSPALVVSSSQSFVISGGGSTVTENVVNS
As to the kind of experiment: Calcium receptor activity in recombinant HEK 293 4.0-7 cells (fluorescence of dye-loaded cells). Type of assay: cell-based. The settings on record: recombinant HEK 293 4.0-7 cells containing a calcium receptor; 1 mM CaCl2, 1 mM MgCl2; fluorescence 340/510 nm. As for the experimental part: Recombinant HEK 293 4.0-7 cells containing a calcium receptor were constructed as described by Rogers et al., J. Bone Miner. Res. 10 Suppl. 1:S483, 1995 (hereby incorporated by reference herein). The recombinant cells were loaded with fura-2 by incubating the cells in Dulbecco's modified Eagle's medium buffered with 20 mM HEPES containing about 5 μM […] for one hour at room temperature. Cells were then rinsed with Hank's balanced salt solution buffered with 20 mM HEPES containing 1 mM CaCl2 and 1 mM MgCl2. Compounds to be tested were then added to the cells and fluorescence was measured (excitation and emission wavelengths of 340 and 510 nm, respectively).
In general, EC50 refers to the concentration that produces a half-maximal response. For the compound `C[C@@H](N[C@H](C)c1cccc2ccccc12)c1ccc(I)cc1` [Compound 26D, hydrochloride], the EC50 was determined as 47 nM. In the case of `CCOc1ccc([C@@H](C)N[C@H](C)c2cccc3ccccc23)cc1C` [Compound 26E, hydrochloride] it was 77 nM; in that of `CC[C@@H](N[C@H](C)c1cccc2ccccc12)c1ccc(OC)c(C)c1` [Compound 26F, hydrochloride], 15 nM; in that of `C[C@@H](NCC=Cc1ccccc1)c1cccc2ccccc12` [Compound 26H, (R)-N-(3-phenyl-2-propenyl)-1-(1-naphthyl)ethylamine hydrochloride], 36 nM. Regarding `CC(=Cc1ccccc1)CN[C@H](C)c1cccc2ccccc12` [Compound 26I, (R)-N-(2-methyl-3-phenyl-2-propenyl)-1-(1-naphthyl)ethylamine hydrochloride], the half-maximal effective concentration (EC50) turned out to be 126 nM. Consider `COc1ccccc1C=CCN[C@H](C)c1cccc2ccccc12` [Compound 26J, hydrochloride], for which the EC50 was determined as 47 nM. Take “(R,R)-N-(1-Ethyl-4′-methoxy-3′-bromophenyl)-1-(1-naphthyl)ethylamine hydrochloride [Compound 26G]”: the EC50 amounted to 11 nM.
